Source: patent US10905123B2, “Herbicidal compounds” (Syngenta Participations AG, priority 2015, dated 2021)

Experiments:
Assay type in all cases: in vivo
Conditions in all cases: evaluated after 13 days
[1] = test system: Echinochloa crus-galli (ECHCG); experiment: B1 pre-emergence herbicidal activity
Procedure: (§1) Seeds of a variety of test species were sown in standard soil in pots: Triticum aestivium (TRZAW), Oryza sativa (ORYSA), Avena fatua (AVEFA), Alopecurus myosuroides (ALOMY), Echinochloa crus-galli (ECHCG), Lolium perenne (LOLPE). After cultivation for one day (pre-emergence) under controlled conditions in a glasshouse (at 24/16° C., day/night; 14 hours light; 65% humidity), the plants were sprayed with an aqueous spray solution derived from the formulation of the technical active ingredient in acetone/water (50:50) solution containing 0.5% Tween 20 (polyoxyethelyene sorbitan monolaurate, CAS RN 9005-64-5). The test plants were then grown in a glasshouse under controlled conditions (at 24/16° C., day/night; 14 hours light; 65% humidity) and watered twice daily. After 13 days, the test was evaluated (5=total damage to plant; 0=no damage to plant).

Oryza sativa (ORYSA) [2] = experiment: B1 pre-emergence herbicidal activity
Procedure: as §1

Lolium perenne (LOLPE) [3] = experiment: B1 pre-emergence herbicidal activity
Procedure: as §1

[4] = test system: Triticum aestivium (TRZAW); experiment: B1 pre-emergence herbicidal activity
Procedure: as §1

Avena fatua (AVEFA) [5] = experiment: B1 pre-emergence herbicidal activity
Procedure: as §1

[6] = test system: Alopecurus myosuroides (ALOMY); experiment: B1 pre-emergence herbicidal activity
Procedure: as §1

[7] = test system: Echinochloa crus-galli (ECHCG); experiment: B2 post-emergence herbicidal activity
Procedure: (§2) Seeds of a variety of test species were sown in standard soil in pots: Triticum aestivium (TRZAW), Oryza sativa (ORYSA), Avena fatua (AVEFA), Alopecurus myosuroides (ALOMY), Echinochloa crus-galli (ECHCG), Lolium perenne (LOLPE). After 8 days cultivation (post-emergence) under controlled conditions in a glasshouse (at 24/16° C., day/night; 14 hours light; 65% humidity), the plants were sprayed with an aqueous spray solution derived from the formulation of the technical active ingredient in acetone/water (50:50) solution containing 0.5% Tween 20 (polyoxyethelyene sorbitan monolaurate, CAS RN 9005-64-5). The test plants were then grown in a glasshouse under controlled conditions (at 24/16° C., day/night; 14 hours light; 65% humidity) and watered twice daily. After 13 days, the test was evaluated (5=total damage to plant; 0=no damage to plant).

Oryza sativa (ORYSA) [8] = experiment: B2 post-emergence herbicidal activity
Procedure: as §2

Lolium perenne (LOLPE) [9] = experiment: B2 post-emergence herbicidal activity
Procedure: as §2

[10] = test system: Triticum aestivium (TRZAW); experiment: B2 post-emergence herbicidal activity
Procedure: as §2

Avena fatua (AVEFA) [11] = experiment: B2 post-emergence herbicidal activity
Procedure: as §2

[12] = test system: Alopecurus myosuroides (ALOMY); experiment: B2 post-emergence herbicidal activity
Procedure: as §2

Structure (SMILES) | Control of ECHCG after pre-emergence application (damage score 0-5) ([1]; Rate 1000 g/ha) | Control of ORYSA after pre-emergence application (damage score 0-5) (Oryza sativa (ORYSA) [2]; Rate 1000 g/ha) | Control of LOLPE after pre-emergence application (damage score 0-5) (Lolium perenne (LOLPE) [3]; Rate 1000 g/ha) | Control of TRZAW after pre-emergence application (damage score 0-5) ([4]; Rate 1000 g/ha) | Control of AVEFA after pre-emergence application (damage score 0-5) (Avena fatua (AVEFA) [5]; Rate 1000 g/ha) | Control of ALOMY after pre-emergence application (damage score 0-5) ([6]; Rate 1000 g/ha) | Control of ECHCG after post-emergence application (damage score 0-5) ([7]; Rate 1000 g/ha) | Control of ORYSA after post-emergence application (damage score 0-5) (Oryza sativa (ORYSA) [8]; Rate 1000 g/ha) | Control of LOLPE after post-emergence application (damage score 0-5) (Lolium perenne (LOLPE) [9]; Rate 1000 g/ha) | Control of TRZAW after post-emergence application (damage score 0-5) ([10]; Rate 1000 g/ha) | Control of AVEFA after post-emergence application (damage score 0-5) (Avena fatua (AVEFA) [11]; Rate 1000 g/ha) | Control of ALOMY after post-emergence application (damage score 0-5) ([12]; Rate 1000 g/ha) | further results
CN(C(=O)OC(C)(C)C)c1cc(-c2cccnc2)nn1C [Compound A1, tert-butyl N-methyl-N-[2-methyl-5-(3-pyridyl)pyrazol-3-yl]carbamate] | 3 | 1 | 1 | 0 | 1 | 0 | 5 | 4 | 1 | 1 | 1 | 3 | –
Cc1nn(-c2cncnc2)cc1NC(=O)OC(C)(C)C [Compound A3, tert-butyl N-(3-methyl-1-pyrimidin-5-yl-pyrazol-4-yl)carbamate] | – | – | – | – | – | – | – | – | – | – | – | – | Control of ECHCG after pre-emergence application (damage score 0-5) ([1]; Rate 500 g/ha): 4; Control of ORYSA after pre-emergence application (damage score 0-5) (Oryza sativa (ORYSA) [2]; Rate 500 g/ha): 1; Control of LOLPE after pre-emergence application (damage score 0-5) (Lolium perenne (LOLPE) [3]; Rate 500 g/ha): 0; Control of TRZAW after pre-emergence application (damage score 0-5) ([4]; Rate 500 g/ha): 1; Control of AVEFA after pre-emergence application (damage score 0-5) (Avena fatua (AVEFA) [5]; Rate 500 g/ha): 0; Control of ALOMY after pre-emergence application (damage score 0-5) ([6]; Rate 500 g/ha): 0; Control of ECHCG after post-emergence application (damage score 0-5) ([7]; Rate 500 g/ha): 5; Control of ORYSA after post-emergence application (damage score 0-5) (Oryza sativa (ORYSA) [8]; Rate 500 g/ha): 1; Control of LOLPE after post-emergence application (damage score 0-5) (Lolium perenne (LOLPE) [9]; Rate 500 g/ha): 2; Control of TRZAW after post-emergence application (damage score 0-5) ([10]; Rate 500 g/ha): 1; Control of AVEFA after post-emergence application (damage score 0-5) (Avena fatua (AVEFA) [11]; Rate 500 g/ha): 4; Control of ALOMY after post-emergence application (damage score 0-5) ([12]; Rate 500 g/ha): 2
CC(C)(C)OC(=O)Nc1cn(-c2cncnc2)nc1C(F)(F)F [Compound A4] | 4 | 1 | 0 | 0 | 1 | 0 | 5 | 2 | 1 | 1 | 1 | 1 | –
Cc1nn(-c2cncnc2)cc1N(C)C(=O)OC(C)(C)C [Compound A5, tert-butyl N-methyl-N-(3-methyl-1-pyrimidin-5-yl-pyrazol-4-yl)carbamate] | 5 | 2 | 1 | 4 | 4 | 1 | 5 | 5 | 2 | 2 | 0 | 4 | –
CN(C(=O)OC(C)(C)C)c1cn(-c2cncnc2)nc1C(F)(F)F [Compound A6] | 5 | 2 | 1 | 0 | 3 | 0 | 5 | 5 | 1 | 1 | 1 | 3 | –
